Measurements: PubChem BioAssay AID2060885 (Molecular Pharmacology Branch, DTP, NCI, 2025)
Where “and” joins values, the source holds several entries; their conditions need not be identical. Equal entries are not always repeated.

Test system: NCI-H23 complex spheroids with HUVEC/MSC, viability
Test: Anticancer human tumor NCI-H23 cell line growth inhibition [RAS];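 further: spheroids exposed to compound for 7 days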;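 on viability, T/C: 100% = DMSO vehicle control viability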
Details: for viability, T/C: stronger effect = lower value
Outline: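 Multi-cell-type spheroids: tumor cells plus HUVEC endothelial cells and mesenchymal stem cells. RAS-pathway inhibitors were combined with targeted agents, each dosed in half-log steps down from clinical Cmax, or from 10 microM when Cmax was unknown.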

[1] = curve of first compound, second compound 0.000949 µM
[2] = curve of first compound, second compound 0.003 µM
[3] = curve of first compound, second compound 0.00949 µM
[4] = curve of first compound, second compound 0.03 µM
[5] = curve of first compound, second compound 0.0949 µM
[6] = curve of first compound, second compound 0.3 µM
[7] = second compound 0.000949 µM, first compound 0.0316 µM
[8] = second compound 0.000949 µM, first compound 0.1 µM
[9] = second compound 0.000949 µM, first compound 0.316 µM
[10] = second compound 0.000949 µM, first compound 1 µM
[11] = second compound 0.000949 µM, first compound 3.16 µM
[12] = second compound 0.000949 µM, first compound 10 µM
[13] = second compound 0.003 µM, first compound 0.0316 µM
[14] = second compound 0.003 µM, first compound 0.1 µM
[15] = second compound 0.003 µM, first compound 0.316 µM
[16] = second compound 0.003 µM, first compound 1 µM
[17] = second compound 0.003 µM, first compound 3.16 µM
[18] = second compound 0.003 µM, first compound 10 µM
[19] = second compound 0.00949 µM, first compound 0.0316 µM
[20] = second compound 0.00949 µM, first compound 0.1 µM
[21] = second compound 0.00949 µM, first compound 0.316 µM
[22] = second compound 0.00949 µM, first compound 1 µM
[23] = second compound 0.00949 µM, first compound 3.16 µM
[24] = second compound 0.00949 µM, first compound 10 µM
[25] = second compound 0.03 µM, first compound 0.0316 µM
[26] = second compound 0.03 µM, first compound 0.1 µM
[27] = second compound 0.03 µM, first compound 0.316 µM
[28] = second compound 0.03 µM, first compound 1 µM
[29] = second compound 0.03 µM, first compound 3.16 µM
[30] = second compound 0.03 µM, first compound 10 µM
[31] = second compound 0.0949 µM, first compound 0.0316 µM
[32] = second compound 0.0949 µM, first compound 0.1 µM
[33] = second compound 0.0949 µM, first compound 0.316 µM
[34] = second compound 0.0949 µM, first compound 1 µM
[35] = second compound 0.0949 µM, first compound 3.16 µM
[36] = second compound 0.0949 µM, first compound 10 µM
[37] = second compound 0.3 µM, first compound 0.0316 µM
[38] = second compound 0.3 µM, first compound 0.1 µM
[39] = second compound 0.3 µM, first compound 0.316 µM
[40] = second compound 0.3 µM, first compound 1 µM
[41] = second compound 0.3 µM, first compound 3.16 µM
[42] = second compound 0.3 µM, first compound 10 µM

NC1c2ccccc2OC12CCN(c1cnc3c(N4CCCc5ncccc54)n[nH]c3n1)CC2 (configuration not stated) + CCn1c(-c2cccnc2C(C)OC)c2c3cc(ccc31)N1CCOC(CC(NC(=O)C(C(C)C)N(C)C(=O)C3(F)CCN(C(=O)C#CC(C)(C)N(C)C)CC3)C(=O)N3CCCC(N3)C(=O)OCC(C)(C)C2)C1
IC50 [1]: < 31.6 nM | IC50 [2]: < 31.6 nM | IC50 [3]: < 31.6 nM | IC50 [4]: < 31.6 nM | IC50 [5]: < 31.6 nM | IC50 [6]: < 31.6 nM | viability, T/C [7]: 19.7% | viability, T/C [8]: 16.4% | viability, T/C [9]: 10.6% | viability, T/C [10]: 9.5% | viability, T/C [11]: 7.93% | viability, T/C [12]: 5.17% | viability, T/C [13]: 20.7% | viability, T/C [14]: 15.8% | viability, T/C [15]: 11.7% | viability, T/C [16]: 8.99% | viability, T/C [17]: 6.81% | viability, T/C [18]: 5.13% | viability, T/C [19]: 18.1% | viability, T/C [20]: 15% | viability, T/C [21]: 11.4% | viability, T/C [22]: 9.87% | viability, T/C [23]: 5.94% | viability, T/C [24]: 5.23% | viability, T/C [25]: 17.8% | viability, T/C [26]: 14.9% | viability, T/C [27]: 11.8% | viability, T/C [28]: 8.83% | viability, T/C [29]: 5.09% | viability, T/C [30]: 5.86% | viability, T/C [31]: 15% | viability, T/C [32]: 12.7% | viability, T/C [33]: 10.3% | viability, T/C [34]: 7.47% | viability, T/C [35]: 5.66% | viability, T/C [36]: 5.23% | viability, T/C [37]: 16.5% | viability, T/C [38]: 11.5% | viability, T/C [39]: 9.55% | viability, T/C [40]: 6.6% | viability, T/C [41]: 6.48% | viability, T/C [42]: 5.71%

CCC(CC)c1cc(NC2CCC(N)C2)n2nccc2n1 (configuration not stated) + C#Cc1c(F)ccc2cc(O)cc(-c3ncc4c(N5CC6CCC(C5)N6)nc(OCC56CCCN5CC(F)C6)nc4c3F)c12
IC50 (curve of first compound, second compound 0.0316 µM): 1800 nM | IC50 (curve of first compound, second compound 0.1 µM): 1780 nM | IC50 (curve of first compound, second compound 0.316 µM): 1680 nM | IC50 (curve of first compound, second compound 1 µM): 1440 nM | IC50 (curve of first compound, second compound 3.16 µM): 1110 nM | IC50 (curve of first compound, second compound 10 µM): < 31.6 nM | viability, T/C (second compound 0.0316 µM, first compound 0.0316 µM): 102% | viability, T/C (second compound 0.0316 µM, first compound 0.1 µM): 129% | viability, T/C (second compound 0.0316 µM, first compound 0.316 µM): 99.8% | viability, T/C (second compound 0.0316 µM, first compound 1 µM): 89.4% | viability, T/C (second compound 0.0316 µM, first compound 3.16 µM): 12.8% | viability, T/C (second compound 0.0316 µM, first compound 10 µM): 1.4% | viability, T/C (second compound 0.1 µM, first compound 0.0316 µM): 109% | viability, T/C (second compound 0.1 µM, first compound 0.1 µM): 127% | viability, T/C (second compound 0.1 µM, first compound 0.316 µM): 104% | viability, T/C (second compound 0.1 µM, first compound 1 µM): 90.9% | viability, T/C (second compound 0.1 µM, first compound 3.16 µM): 9.22% | viability, T/C (second compound 0.1 µM, first compound 10 µM): 1.06% | viability, T/C (second compound 0.316 µM, first compound 0.0316 µM): 113% | viability, T/C (second compound 0.316 µM, first compound 0.1 µM): 128% | viability, T/C (second compound 0.316 µM, first compound 0.316 µM): 98.9% | viability, T/C (second compound 0.316 µM, first compound 1 µM): 83.1% | viability, T/C (second compound 0.316 µM, first compound 3.16 µM): 10.2% | viability, T/C (second compound 0.316 µM, first compound 10 µM): 1.06% | viability, T/C (second compound 1 µM, first compound 0.0316 µM): 108% | viability, T/C (second compound 1 µM, first compound 0.1 µM): 121% | viability, T/C (second compound 1 µM, first compound 0.316 µM): 92% | viability, T/C (second compound 1 µM, first compound 1 µM): 71.6% | viability, T/C (second compound 1 µM, first compound 3.16 µM): 9.15% | viability, T/C (second compound 1 µM, first compound 10 µM): 0.7% | viability, T/C (second compound 3.16 µM, first compound 0.0316 µM): 76.2% | viability, T/C (second compound 3.16 µM, first compound 0.1 µM): 70.1% | viability, T/C (second compound 3.16 µM, first compound 0.316 µM): 57.7% | viability, T/C (second compound 3.16 µM, first compound 1 µM): 55.3% | viability, T/C (second compound 3.16 µM, first compound 3.16 µM): 5.85% | viability, T/C (second compound 3.16 µM, first compound 10 µM): 0.62% | viability, T/C (second compound 10 µM, first compound 0.0316 µM): 36.7% | viability, T/C (second compound 10 µM, first compound 0.1 µM): 45.5% | viability, T/C (second compound 10 µM, first compound 0.316 µM): 41.9% | viability, T/C (second compound 10 µM, first compound 1 µM): 37.9% | viability, T/C (second compound 10 µM, first compound 3.16 µM): 3.49% | viability, T/C (second compound 10 µM, first compound 10 µM): 1.1%

C[C@@H](NC(=O)c1ncnc(N)c1Cl)c1ncc(C(=O)Nc2cc(C(F)(F)F)c(Cl)cn2)s1
viability, T/C (compound 0.0316 µM): 107% [middle of 4 runs] | viability, T/C (compound 0.1 µM): 106% and 109% (2×) and 116% | viability, T/C (compound 0.316 µM): 108% [middle of 4 runs] | viability, T/C (compound 1 µM): 101% (2×) and 99.7% and 106% | viability, T/C (compound 3.16 µM): 90.6% [middle of 4 runs] | IC50 (curve of compound): > 10000 nM

Cc1nc(N2CCC3(CC2)COC(C)C3N)c(CO)nc1Sc1ccnc(N)c1Cl (configuration not stated) + CCn1c(-c2cccnc2C(C)OC)c2c3cc(ccc31)N1CCOC(CC(NC(=O)C(C(C)C)N(C)C(=O)C3(F)CCN(C(=O)C#CC(C)(C)N(C)C)CC3)C(=O)N3CCCC(N3)C(=O)OCC(C)(C)C2)C1
IC50 [1]: < 31.6 nM | IC50 [2]: < 31.6 nM | IC50 [3]: < 31.6 nM | IC50 [4]: < 31.6 nM | IC50 [5]: < 31.6 nM | IC50 [6]: < 31.6 nM | viability, T/C [7]: 27.2% | viability, T/C [8]: 21% | viability, T/C [9]: 13.6% | viability, T/C [10]: 15.3% | viability, T/C [11]: 12.3% | viability, T/C [12]: 9.03% | viability, T/C [13]: 25.1% | viability, T/C [14]: 20.2% | viability, T/C [15]: 16.4% | viability, T/C [16]: 16.7% | viability, T/C [17]: 12.2% | viability, T/C [18]: 8.35% | viability, T/C [19]: 24% | viability, T/C [20]: 21.4% | viability, T/C [21]: 18% | viability, T/C [22]: 14.4% | viability, T/C [23]: 11.5% | viability, T/C [24]: 8.24% | viability, T/C [25]: 22.4% | viability, T/C [26]: 19.1% | viability, T/C [27]: 17.7% | viability, T/C [28]: 11.7% | viability, T/C [29]: 9.09% | viability, T/C [30]: 9.82% | viability, T/C [31]: 20.3% | viability, T/C [32]: 20.6% | viability, T/C [33]: 15.1% | viability, T/C [34]: 13.4% | viability, T/C [35]: 8.28% | viability, T/C [36]: 9.12% | viability, T/C [37]: 20% | viability, T/C [38]: 17.1% | viability, T/C [39]: 18.1% | viability, T/C [40]: 11.3% | viability, T/C [41]: 7.7% | viability, T/C [42]: 9.33%
